In PMC8388125, “Kinetic and Structural Characterization of the Self-Labeling Protein Tags HaloTag7, SNAP-tag, and CLIP-tag” (Biochemistry, 2021):

Each molecule was assayed against T1, HT7^D106A (Rhodococcus sp., UniProt P59336, A155T/A167V/A224E/C128F/C176G/D106A/D78G/E160K/E257K/G292T/H272N/K175M/K195N/L47V/L88M/N227D/P291S/S2A/S58T/T264A/V172T/Y273L/Y87F) (assay: Affinity of HT7^D106A for CA substrates by fluorescence polarization). Conditions: not given.
T1 construct: made in house; host or cells: E. coli BL21(DE3)-pLysS
T1 sequence (P59336 other isoform, or with tags, fused parts or gaps with the stated changes): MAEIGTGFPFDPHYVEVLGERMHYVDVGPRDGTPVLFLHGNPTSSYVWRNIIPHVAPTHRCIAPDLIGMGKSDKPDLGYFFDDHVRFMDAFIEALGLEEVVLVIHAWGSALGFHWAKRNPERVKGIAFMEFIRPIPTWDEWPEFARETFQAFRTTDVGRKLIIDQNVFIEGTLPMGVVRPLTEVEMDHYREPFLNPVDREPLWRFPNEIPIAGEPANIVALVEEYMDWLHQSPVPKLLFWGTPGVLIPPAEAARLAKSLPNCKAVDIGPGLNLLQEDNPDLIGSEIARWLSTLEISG
Format: binding
Method: Binding affinities of HT7^D106A or HOB^D106A for chloroalkane (CA) substrates were determined by fluorescence polarization (FP, eq 1) measurements using a microplate reader (Spark20M, Tecan Group AG, Männedorf, Switzerland). The fluorescent substrates (10 nM) were titrated against different protein concentrations (0–250 μM) in activity buffer supplemented with 0.5 g/L bovine serum albumin (BSA). Assays were performed in black low-volume nonbinding 384-well plates (Corning Inc., Corning, NY) with a final volume of 20 μL. Obtained FP values were averaged and fitted to a single-site binding model (eq 2) to estimate Kd values for each fluorescent substrate. The FP value of each dye fully reacted with the native HT7 was used to improve fitting of the upper plateau of the curves by adding an extra data point at a protein concentration of 0.1 M. [drawing 1] 1 where FP is the fluorescence polarization, I∥ is the fluorescence intensity parallel to the excitation light polarization, I⊥ is the fluorescence intensity perpendicular to the excitation light polarization, and G is the grating factor (G = I∥/I⊥). [drawing 2] 2 where FPmin is the fluorescence polarization of the free fluorophore (lower plateau), FPmax is the maximal fluorescence polarization of fully bound fluorophore (upper plateau), Kd is the dissociation constant, and [protein] is the protein concentration.
Free binding energies were calculated from Kd values according to eq 4: [drawing 4] 4 where ΔG is the free binding energy, R is the universal gas constant, T is the temperature, and Kd is the dissociation constant.

SMILES | Kd [µM]
CN(C)c1ccc2c(-c3ccc(C(=O)NCCOCCOCCCCCCCl)cc3C(=O)[O-])c3ccc(=[N+](C)C)cc-3oc2c1 [CA-5-TMR] | 39.4

What follows are molecules tested against T2, HaloTag7 (HT7) (Rhodococcus sp., UniProt P59336, A155T/A167V/A224E/C128F/C176G/D78G/E160K/E257K/G292T/H272N/K175M/K195N/L47V/L88M/N227D/P291S/S2A/S58T/T264A/V172T/Y273L/Y87F) (assay: HT7 competitive labeling kinetics against CA-Alexa488). Conditions: HT7, nonfluorescent substrates, competition with CA-Alexa488, 37 °C.
T2 construct: made in house; host or cells: E. coli BL21(DE3)-pLysS
T2 sequence (P59336 other isoform, or with tags, fused parts or gaps with the stated changes): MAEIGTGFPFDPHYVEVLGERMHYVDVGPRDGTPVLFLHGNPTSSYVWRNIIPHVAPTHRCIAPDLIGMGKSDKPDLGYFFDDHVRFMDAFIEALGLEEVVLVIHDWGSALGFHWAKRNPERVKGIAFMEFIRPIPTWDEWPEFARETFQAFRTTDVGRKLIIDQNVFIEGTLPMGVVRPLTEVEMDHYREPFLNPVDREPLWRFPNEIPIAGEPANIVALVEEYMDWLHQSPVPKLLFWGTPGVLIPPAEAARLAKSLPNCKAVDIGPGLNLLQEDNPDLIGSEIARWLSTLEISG
Format: biochemical
Method: Competitive kinetics were measured by recording FP over time using a microplate reader (Spark20M, Tecan). The final concentrations of CA-Alexa488 (50 nM) and HT7 protein (200 nM) remained constant with varying concentrations of nonfluorescent substrates (0–1 μM) in activity buffer supplemented with 0.5 g/L BSA. Assays were performed in black nonbinding flat bottom 96-well plates with a final reaction volume of 200 μL. Labeling reactions were started by adding the HT7 protein to wells containing CA-Alexa488 and nonfluorescent substrates using an electronic 96-channel pipettor (Integra Bioscience Corp., Hudson, NH). The FP of free CA-Alexa488 was measured to obtain a baseline.
(§1) Data were fitted to a simplified kinetic competition model (eqs 19 and 20) described by differential eqs 21–25 using DynaFit. The dead time of the measurements and baseline FP value were put in as fixed parameters. Standard deviations (normal distribution verified) and confidence intervals of fitted parameters were estimated with the Monte Carlo method with standard settings (N = 1000, 5% worst fits discarded). [drawing 19] 19 [drawing 20] 20 where P is the SLP protein, S is the fluorescent SLP substrate, I is the nonfluorescent SLP substrate (inhibitor), PS is the protein–fluorescent substrate conjugate, and PI is the protein–nonfluorescent substrate conjugate. [drawing 21] 21 [drawing 22] 22 [drawing 23] 23 [drawing 24] 24 [drawing 25] 25

SMILES | kapp (value ± standard deviation)
O=C(NCCOCCOCCCCCCCl)OC[C@@H]1[C@@H]2CCC#CCC[C@@H]21 [CA-BCN] | (2.04 ± 0.03) × 10^5 M^–1 s^–1
[N-]=[N+]=NCC(=O)NCCOCCOCCCCCCCl [CA-N3] | (6.00 ± 0.06) × 10^3 M^–1 s^–1
O=C(NCCOCCOCCCCCCCl)C1CC2C=CC1C2 (centres unmarked) [CA-Nor1] | (6.68 ± 0.06) × 10^3 M^–1 s^–1
O=C(CC1CC2C=CC1C2)NCCOCCOCCCCCCCl (centres unmarked) [CA-Nor2] | (6.15 ± 0.07) × 10^3 M^–1 s^–1
[N-]=[N+]=Nc1ccc(C(=O)NCCOCCOCCCCCCCl)cc1 [CA-PhN3] | (2.14 ± 0.02) × 10^4 M^–1 s^–1
O=C(NCCOCCOCCCCCCCl)OC1C#CCCCCC1 (centres unmarked) [CA-SCO] | (2.52 ± 0.05) × 10^5 M^–1 s^–1
Cc1nnc(-c2ccc(CC(=O)NCCOCCOCCCCCCCl)cc2)nn1 [CA-Tz] | (3.13 ± 0.03) × 10^4 M^–1 s^–1
C=Cc1ccc(C(=O)NCCOCCOCCCCCCCl)cc1 [CA-Vbn] | (8.68 ± 0.07) × 10^3 M^–1 s^–1

What follows are molecules tested against T3, SNAP-tag (SNAP) (Homo sapiens, UniProt P16455, A127T/A154D/C150Q/C62A/G131K/G132T/G153L/K125A/K32I/L33F/M134L/N157G/Q115S/Q116H/R128A/R135S/S151G/S152D/S159E) (assay: SNAP competitive labeling kinetics against BG-Alexa488). Conditions: nonfluorescent substrates, competition with BG-Alexa488.
T3 construct: made in house; host or cells: E. coli BL21(DE3)-pLysS
T3 sequence (P16455 1-182 K32I/L33F/C62A/Q115S/Q116H/K125A/A127T/R128A/G131K/G132T/M134L/R135S/C150Q/S151G/S152D/G153L/A154D/N157G/S159E limits assumed): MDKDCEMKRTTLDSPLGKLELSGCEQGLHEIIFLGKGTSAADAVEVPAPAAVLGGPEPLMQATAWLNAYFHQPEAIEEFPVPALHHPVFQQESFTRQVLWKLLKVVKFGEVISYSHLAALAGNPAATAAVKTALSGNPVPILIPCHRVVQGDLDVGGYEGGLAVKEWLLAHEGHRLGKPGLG
Format: biochemical
Method: Competitive kinetics were measured by recording FP over time using a microplate reader in a manner analogous to that for HT7 competition kinetics described above using 100 nM BG-Alexa488 as the fluorescent substrate in SNAP-FP buffer.
as §1

SMILES | kapp (value ± standard deviation)
Nc1nc(OCc2ccccc2)c2nc[nH]c2n1 [BG, benzylguanine] | (1.87 ± 0.05) × 10^4 M^–1 s^–1
CC(=O)NCc1ccc(COc2nc(N)nc3[nH]cnc23)cc1 [BG-Ac] | (1.48 ± 0.05) × 10^4 M^–1 s^–1
Nc1nc(OCc2ccc(CNC(=O)OC[C@@H]3[C@@H]4CCC#CCC[C@@H]43)cc2)c2nc[nH]c2n1 [BG-BCN] | (3.88 ± 0.07) × 10^4 M^–1 s^–1
Cc1nnc(-c2ccc(CC(=O)NCc3ccc(COc4nc(N)nc5[nH]cnc45)cc3)cc2)nn1 [BG-Tz] | (3.94 ± 0.08) × 10^4 M^–1 s^–1
Nc1nc(Cl)cc(OCc2ccc(CNC(=O)OC[C@@H]3[C@@H]4CCC#CCC[C@@H]43)cc2)n1 [CP-BCN] | (3.34 ± 0.31) × 10^3 M^–1 s^–1
[N-]=[N+]=NCC(=O)NCc1ccc(COc2cc(Cl)nc(N)n2)cc1 [CP-N3] | (6.36 ± 0.41) × 10^3 M^–1 s^–1
Nc1nc(Cl)cc(OCc2ccc(CNC(=O)OC3C#CCCCCC3)cc2)n1 (centres unmarked) [CP-SCO] | (4.22 ± 0.61) × 10^3 M^–1 s^–1

Continued, values first:

kapp (value ± standard deviation) | SMILES
(3.70 ± 0.09) × 10^4 M^–1 s^–1 | [N-]=[N+]=NCC(=O)NCc1ccc(COc2nc(N)nc3[nH]cnc23)cc1 [BG-N3]
(7.34 ± 0.01) × 10^4 M^–1 s^–1 | Nc1nc(OCc2ccc(CNC(=O)C3CC4C=CC3C4)cc2)c2nc[nH]c2n1 (centres unmarked) [BG-Nor1]
(4.78 ± 0.09) × 10^4 M^–1 s^–1 | [N-]=[N+]=Nc1ccc(C(=O)NCc2ccc(COc3nc(N)nc4[nH]cnc34)cc2)cc1 [BG-PhN3]
(3.75 ± 0.06) × 10^4 M^–1 s^–1 | Nc1nc(OCc2ccc(CNC(=O)OC3C#CCCCCC3)cc2)c2nc[nH]c2n1 (centres unmarked) [BG-SCO]
(3.84 ± 0.07) × 10^4 M^–1 s^–1 | C=Cc1ccc(C(=O)NCc2ccc(COc3nc(N)nc4[nH]cnc34)cc2)cc1 [BG-Vbn]
(1.77 ± 0.04) × 10^4 M^–1 s^–1 | Nc1nc(Cl)cc(OCc2ccc(CNC(=O)C3CC4C=CC3C4)cc2)n1 (centres unmarked) [CP-Nor1]
(2.91 ± 0.40) × 10^3 M^–1 s^–1 | [N-]=[N+]=Nc1ccc(C(=O)NCc2ccc(COc3cc(Cl)nc(N)n3)cc2)cc1 [CP-PhN3]
(5.50 ± 0.45) × 10^3 M^–1 s^–1 | C=Cc1ccc(C(=O)NCc2ccc(COc3cc(Cl)nc(N)n3)cc2)cc1 [CP-Vbn]

The molecules below were run against T2, HaloTag7 (HT7) (assay: HT7 labeling kinetics via stopped flow (fluorescence anisotropy)). Conditions: HT7.
Format: biochemical
Method: Labeling kinetics of HT7 with CA-TMR, CA-JF549, CA-CPY, CA-LIVE580, and CA-JF669 and labeling kinetics of HOB with CA-TMR were measured by recording fluorescence anisotropy changes over time using a BioLogic SFM-400 stopped-flow instrument (BioLogic Science Instruments, Claix, France) in a single-mixing configuration at 37 °C. HT7 protein and substrates in activity buffer were mixed in a 1:1 stoichiometry to reach a recordable speed for these fast reactions and to increase the information content of the traces. Concentrations were varied from 0.125 to 1 μM. The anisotropy of the free substrate was measured to obtain a baseline.
Kinetic stopped-flow data were preprocessed using a custom R script.[36],[37] Recorded pretrigger time points were removed, and time points were adjusted to start at time zero. Values from replicates were averaged. The anisotropy of the free dye was calculated by averaging anisotropy values of the baseline measurements. Preprocessed data were fitted to a kinetic model (eqs 5 and 6) described by differential eqs 7–10 using the DynaFit software.[38] The anisotropy of the free dye and the mixing delay of the stopped-flow machine were set as fixed offset and delay parameters in DynaFit. It was assumed that the protein substrate complex and the reacted product are contributing equally to the anisotropy signal. […] Standard deviations (normal distribution verified) and confidence intervals of fitted parameters were estimated with the Monte Carlo method[39] with standard settings (N = 1000, 5% worst fits discarded). In the case of SNAP kinetics with BG-TMR, the substrate concentration was fitted by DynaFit to rule out quantification errors of the BG-quenched fluorophore. Accurate fitting of the concentration was ensured by including conditions in which protein is limiting and no maximum FP value was reached.

SMILES | fold increase in labeling kinetics relative to CA-PEG-biotin [fold]
CN(CCCC(=O)NCCOCCOCCOCCNC(=O)CCCC[C@H]1SC[C@H]2NC(=O)N[C@H]21)c1ccc2c(-c3cc(C(=O)NCCOCCOCCCCCCCl)ccc3C(=O)[O-])c3ccc(=[N+](C)C)cc-3oc2c1 [CA-TMR-biotin] | > 500

Same assay, conditions: HT7, stopped flow, model 2

SMILES | k2 (± S.D.)
C[Si]1(C)C2=CC(=[N+]3CCC3)C=CC2=C(c2c(F)c(C(=O)NCCOCCOCCCCCCCl)c(F)c(F)c2C(=O)[O-])c2ccc(N3CCC3)cc21 [CA-JF669] | 6.94 (± 0.47) s-1
CN(CCCC(=O)NCCOCCOCCOCCNC(=O)CCCC[C@H]1SC[C@H]2NC(=O)N[C@H]21)c1ccc2c(-c3cc(C(=O)NCCOCCOCCCCCCCl)ccc3C(=O)[O-])c3ccc(=[N+](C)C)cc-3oc2c1 [CA-TMR-biotin] | 8.24 (± 0.28) s-1

What follows are molecules tested against T3, SNAP-tag (SNAP) (assay: SNAP labeling kinetics via microplate reader (FP over time)). Conditions: SNAP, plate reader, kinetic model 1.
Format: biochemical
Method: Labeling kinetics of SNAP and CLIP substrates were measured by recording FP over time using a microplate reader in a manner analogous to that of HT7 labeling kinetics described above with the following changes. The fluorescent substrate concentration was fixed to 20 nM, and protein concentrations were varied from 15 to 900 nM. Measurements were performed in SNAP-FP buffer.
Kinetic data from microplate reader assays were fitted to a simplified kinetic model (eq 13) described by differential eqs 14–16 using DynaFit. The dead time of the measurements and baseline FP value were put in as fixed parameters. Standard deviations (normal distribution verified) and confidence intervals of fitted parameters were estimated with the Monte Carlo method with standard settings (N = 1000, 5% worst fits discarded). In the case of BG, CP, and BC kinetics, the substrate concentration was fitted by DynaFit to rule out quantification errors of the BG, CP, or BC fluorophores. Accurate fitting of the concentration was ensured by including conditions under which protein is limiting and no maximum FP value was reached.

kapp (value ± standard deviation) | SMILES
(2.17 ± 0.01) × 10^5 M^–1 s^–1 | CN(C)c1ccc2c(c1)C(C)(C)C1=CC(=[N+](C)C)C=CC1=C2c1cc(C(=O)NCc2ccc(COc3nc(N)nc4[nH]cnc34)cc2)ccc1C(=O)[O-] [BG-CPY]

Same assay, conditions: SNAP, plate reader, third kinetic model with slow aging event (*)

kapp (value ± standard deviation) | SMILES
(1.59 ± 0.01) × 10^4 ^* M^–1 s^–1 | CN(C)c1ccc2c(c1)C(C)(C)C1=CC(=[N+](C)C)C=CC1=C2c1cc(C(=O)NCc2ccc(COc3cc(Cl)nc(N)n3)cc2)ccc1C(=O)[O-] [CP-CPY]
